The test system of test [1] is human lower urinary tract smooth muscle strips (prostatic/urethral). The experiment in a line: Agonist potency on human lower urinary tract smooth muscle strips (isometric tension, organ bath). Type of test: cell-based. The following applies: for EC50 / Emax: human LUT strips; for EC50: cocaine 10 μM, corticosterone 10 μM, propanolol 1 μM present, read-out: pEC50 (increase in developed tension) (converted); for Emax: relative to 100 mM potassium chloride, read-out: maximum response equivalent to % of the response to 100 mM potassium chloride. The procedure:
Determinations were made of agonist potency on human LUT and blood vessel smooth muscle. Tissue sources: human lower urinary tract smooth muscle strips (prostatic/urethral) were obtained from patients undergoing transurethral resection of the prostate procedure for benign prostatic hyperplasia. Human mesenteric arteries (500-750 μm internal diameter) were obtained from patients undergoing bowel resection for carcinoma. Tissues were preserved in Krebs-bicarbonate solution at 4° C. from the time of surgery until used in functional experiments within 24 hours. Sections of mesenteric artery (5 mm in length) were set up between stainless steel stirrups after removal of the endothelium by gentle rubbing. Strips of prostatic/urethral smooth muscle (3×10 mm) and the mesenteric arteries were set up under 1 g resting tension in Krebs solution of composition (mM): NaCl 118.4; KCl 4.7; CaCl2 1.9; NaHCO3 25.0; MgSO4 1.2; KH2PO4 1.2; glucose 11.7, gassed with 5% CO2 in O2 and maintained at 37° C. The tension developed by all tissues was measured by means of isometric force transducers (Lectromed UFI 57G sensitivity) and recorded to computer via a Cambridge Electronic Design 1401 analogue to digital converter, using CHART software. Tissues were equilibrated for 60 minutes with several changes of bathing medium prior to starting drug administrations. All experiments were performed in the presence of cocaine (10 μM) and corticosterone (10 μM), to prevent neuronal and extraneuronal uptake of drugs, and propanolol (1 μM), to block B adrenoreceptors. Cumulative concentration-response curves were obtained to 2-[(5-chloro-2-methoxyphenyl)azo]-1H-imidazole, and to noradrenaline for comparison. […] Increases in developed tension to agonist were plotted and individual EC50 values were determined. From these, pEC50 (negative log of the EC50) values were determined for each experiment and where appropriate mean values of these with standard error of the means calculated.

Test [2] concerns human mesenteric arteries. The experiment in a line: Agonist potency on human mesenteric artery sections (isometric tension, organ bath). Type of test: cell-based. The following applies: for EC50 / mean maximum contraction: human mesenteric arteries; for EC50: endothelium removed, cocaine 10 μM, corticosterone 10 μM, propanolol 1 μM present, read-out: pEC50 (increase in developed tension) (converted); for mean maximum contraction: for the imidazole the maximum occurred at 20 micromolar. The procedure:
Determinations were made of agonist potency on human LUT and blood vessel smooth muscle. Tissue sources: human lower urinary tract smooth muscle strips (prostatic/urethral) were obtained from patients undergoing transurethral resection of the prostate procedure for benign prostatic hyperplasia. Human mesenteric arteries (500-750 μm internal diameter) were obtained from patients undergoing bowel resection for carcinoma. Tissues were preserved in Krebs-bicarbonate solution at 4° C. from the time of surgery until used in functional experiments within 24 hours. Sections of mesenteric artery (5 mm in length) were set up between stainless steel stirrups after removal of the endothelium by gentle rubbing. Strips of prostatic/urethral smooth muscle (3×10 mm) and the mesenteric arteries were set up under 1 g resting tension in Krebs solution of composition (mM): NaCl 118.4; KCl 4.7; CaCl2 1.9; NaHCO3 25.0; MgSO4 1.2; KH2PO4 1.2; glucose 11.7, gassed with 5% CO2 in O2 and maintained at 37° C. The tension developed by all tissues was measured by means of isometric force transducers (Lectromed UFI 57G sensitivity) and recorded to computer via a Cambridge Electronic Design 1401 analogue to digital converter, using CHART software. Tissues were equilibrated for 60 minutes with several changes of bathing medium prior to starting drug administrations. All experiments were performed in the presence of cocaine (10 μM) and corticosterone (10 μM), to prevent neuronal and extraneuronal uptake of drugs, and propanolol (1 μM), to block B adrenoreceptors. Cumulative concentration-response curves were obtained to 2-[(5-chloro-2-methoxyphenyl)azo]-1H-imidazole, and to noradrenaline for comparison. For the mesenteric artery preparations following the recording of the final drug response to 2-[(5-chloro-2-methoxyphenyl)azo]-1H-imidazole, a supramaximal concentration of noradrenaline was added as a further test for partial agonism. Increases in developed tension to agonist were plotted and individual EC50 values were determined. From these, pEC50 (negative log of the EC50) values were determined for each experiment and where appropriate mean values of these with standard error of the means calculated.

Turning to `COc1ccc(Cl)cc1N=Nc1ncc[nH]1` [2-[(5-chloro-2-methoxyphenyl)azo]-1H-imidazole], the EC50 in test [1] is 2 µM; in test [2] it was 5.01 µM. In addition, in test [1], the Emax came out at 62.5%. Also, the “agonist character compared with noradrenaline” value in test [1] (human LUT tissue) is listed as “full agonist”; in test [2] (human blood vessels (mesenteric arteries)), “partial agonist”. The compound also registered a mean maximum contraction in test [2] of 1.1 ± 0.7 g.
For `NC[C@H](O)c1ccc(O)c(O)c1` [Noradrenaline, noradrenaline, reference compound], in test [1], the EC50 was 3.98 µM and the Emax was 63.7 ± 4.8%. For the same compound, in test [2], the EC50 is 0.661 µM and the mean maximum contraction was 4.22 ± 2.21 g. The “mean further increase in tension” value in test [2] (noradrenaline 160-210 μM added after the highest concentration of 2-[(5-chloro-2-methoxyphenyl)azo]-1H-imidazole, n=3) was determined as 2.7 ± 0.9 g.
